Species on record: Rattus norvegicus
Assay type: toxicity, organism-based, Sprague-Dawley
Details: in vivo, po, route oral GAVAGE, vehicle 100 % SALINE; for ABSOLUTE EOSINOPHIL / ABSOLUTE LYMPHOCYTE / ABSOLUTE MONOCYTE / ABSOLUTE SEGMENTED NEUTROPHIL / BASOPHIL / EOSINOPHIL / ERYTHROCYTE COUNT / HEMATOCRIT / HEMOGLOBIN / LEUKOCYTE COUNT / LYMPHOCYTE / MEAN CORPUSCULAR HEMOGLOBIN / MEAN CORPUSCULAR HEMOGLOBIN CONCENTRATION / MEAN CORPUSCULAR VOLUME / MONOCYTE / NEUTROPHIL / NUCLEATED RED BLOOD CELLS / PLATELET COUNT: tissue Blood; for ALANINE AMINOTRANSFERASE / ALBUMIN / ALKALINE PHOSPHATASE / ASPARTATE AMINOTRANSFERASE / BLOOD UREA NITROGEN / CARBON DIOXIDE / CHLORIDE / CHOLESTEROL / CREATINE PHOSPHOKINASE / CREATININE / GLUCOSE / LACTATE DEHYDROGENASE / LIPASE / PHOSPHORUS / POTASSIUM / SODIUM / TOTAL BILIRUBIN / TOTAL PROTEIN / URIC ACID: tissue Plasma
[1] = 10 mg/kg, 24 h, dose level Low, time 1 day
[2] = 30 mg/kg, 6 h, dose level High, time 0.25 day
[3] = 30 mg/kg, 24 h, dose level High, time 1 day

Description: DrugMatrix - Regimen: Single

O=[As][O-].[Na+] [SODIUM ARSENITE]
ABSOLUTE EOSINOPHIL [1]: 15.17 CELLS/uL
ABSOLUTE LYMPHOCYTE [1]: 9656.17 CELLS/uL
ABSOLUTE MONOCYTE [1]: 190.33 CELLS/uL
ABSOLUTE SEGMENTED NEUTROPHIL [1]: 505 CELLS/uL
BASOPHIL [1]: 0%
EOSINOPHIL [1]: 0.17%
ERYTHROCYTE COUNT [1]: 4.96 x10E6/uL
HEMATOCRIT [1]: 32.55%
HEMOGLOBIN [1]: 12.85 G/DL
LEUKOCYTE COUNT [1]: 10.37 x10E3/uL
LYMPHOCYTE [1]: 93%
MEAN CORPUSCULAR HEMOGLOBIN [1]: 25.92 pg
MEAN CORPUSCULAR HEMOGLOBIN CONCENTRATION [1]: 39.47 G/DL
MEAN CORPUSCULAR VOLUME [1]: 65.67 fL
MONOCYTE [1]: 1.83%
NEUTROPHIL [1]: 5%
NUCLEATED RED BLOOD CELLS [1]: 0 /100WBC
PLATELET COUNT [1]: 1030.17 x10E3/uL
ALANINE AMINOTRANSFERASE [1]: 32.83 u/L
ALBUMIN [1]: 4.12 G/DL
ALKALINE PHOSPHATASE [1]: 249.5 u/L
ASPARTATE AMINOTRANSFERASE [1]: 61.17 u/L
BLOOD UREA NITROGEN [1]: 11 mg/dL
CARBON DIOXIDE [1]: 31.17 mmol/L
CHLORIDE [1]: 98.33 MEQ/L
CHOLESTEROL [1]: 81.67 mg/dL
CREATINE PHOSPHOKINASE [1]: 185.5 u/L
CREATININE [1]: 0.18 mg/dL
GLUCOSE [1]: 153.5 mg/dL
LACTATE DEHYDROGENASE [1]: 58.67 u/L
LIPASE [1]: 9.83 u/L
PHOSPHORUS [1]: 10.27 mg/dL
POTASSIUM [1]: 5.57 MEQ/L
SODIUM [1]: 143.25 MEQ/L
TOTAL BILIRUBIN [1]: 0.13 mg/dL
TOTAL PROTEIN [1]: 5.97 G/DL
URIC ACID [1]: 0.45 mg/dL
ABSOLUTE EOSINOPHIL [2]: 50 CELLS/uL
ABSOLUTE LYMPHOCYTE [2]: 13297 CELLS/uL
ABSOLUTE MONOCYTE [2]: 256.33 CELLS/uL
ABSOLUTE SEGMENTED NEUTROPHIL [2]: 2130 CELLS/uL
BASOPHIL [2]: 0%
EOSINOPHIL [2]: 0.33%
ERYTHROCYTE COUNT [2]: 5.91 x10E6/uL
HEMATOCRIT [2]: 39.97%
HEMOGLOBIN [2]: 14.47 G/DL
LEUKOCYTE COUNT [2]: 15.73 x10E3/uL
LYMPHOCYTE [2]: 84.67%
MEAN CORPUSCULAR HEMOGLOBIN [2]: 24.55 pg
MEAN CORPUSCULAR HEMOGLOBIN CONCENTRATION [2]: 36.2 G/DL
MEAN CORPUSCULAR VOLUME [2]: 67.78 fL
MONOCYTE [2]: 1.67%
NEUTROPHIL [2]: 13.33%
NUCLEATED RED BLOOD CELLS [2]: 0 /100WBC
PLATELET COUNT [2]: 1100.5 x10E3/uL
ALANINE AMINOTRANSFERASE [2]: 96.5 u/L
ALBUMIN [2]: 4.35 G/DL
ALKALINE PHOSPHATASE [2]: 225.33 u/L
ASPARTATE AMINOTRANSFERASE [2]: 192.17 u/L
BLOOD UREA NITROGEN [2]: 19.33 mg/dL
CARBON DIOXIDE [2]: 17.5 mmol/L
CHLORIDE [2]: 99.67 MEQ/L
CHOLESTEROL [2]: 64.33 mg/dL
CREATINE PHOSPHOKINASE [2]: 1132 u/L
CREATININE [2]: 0.23 mg/dL
GLUCOSE [2]: 205 mg/dL
LACTATE DEHYDROGENASE [2]: 746.17 u/L
LIPASE [2]: 8.17 u/L
PHOSPHORUS [2]: 16.53 mg/dL
POTASSIUM [2]: 6.95 MEQ/L
SODIUM [2]: 140.37 MEQ/L
TOTAL BILIRUBIN [2]: 0.2 mg/dL
TOTAL PROTEIN [2]: 5.83 G/DL
URIC ACID [2]: 4.12 mg/dL
ABSOLUTE EOSINOPHIL [3]: 0 CELLS/uL
ABSOLUTE LYMPHOCYTE [3]: 12176.83 CELLS/uL
ABSOLUTE MONOCYTE [3]: 320 CELLS/uL
ABSOLUTE SEGMENTED NEUTROPHIL [3]: 353.17 CELLS/uL
BASOPHIL [3]: 0%
EOSINOPHIL [3]: 0%
ERYTHROCYTE COUNT [3]: 5.64 x10E6/uL
HEMATOCRIT [3]: 36.4%
HEMOGLOBIN [3]: 14.38 G/DL
LEUKOCYTE COUNT [3]: 12.85 x10E3/uL
LYMPHOCYTE [3]: 94.83%
MEAN CORPUSCULAR HEMOGLOBIN [3]: 25.55 pg
MEAN CORPUSCULAR HEMOGLOBIN CONCENTRATION [3]: 39.53 G/DL
MEAN CORPUSCULAR VOLUME [3]: 64.63 fL
MONOCYTE [3]: 2.33%
NEUTROPHIL [3]: 2.83%
NUCLEATED RED BLOOD CELLS [3]: 0.17 /100WBC
PLATELET COUNT [3]: 1165.33 x10E3/uL
ALANINE AMINOTRANSFERASE [3]: 12.67 u/L
ALBUMIN [3]: 3.88 G/DL
ALKALINE PHOSPHATASE [3]: 235.5 u/L
ASPARTATE AMINOTRANSFERASE [3]: 43.83 u/L
BLOOD UREA NITROGEN [3]: 14.83 mg/dL
CARBON DIOXIDE [3]: 30.67 mmol/L
CHLORIDE [3]: 99.5 MEQ/L
CHOLESTEROL [3]: 62.17 mg/dL
CREATINE PHOSPHOKINASE [3]: 219.17 u/L
CREATININE [3]: 0.2 mg/dL
GLUCOSE [3]: 139.5 mg/dL
LACTATE DEHYDROGENASE [3]: 82 u/L
LIPASE [3]: 9 u/L
PHOSPHORUS [3]: 10.38 mg/dL
POTASSIUM [3]: 5.78 MEQ/L
SODIUM [3]: 143.5 MEQ/L
TOTAL BILIRUBIN [3]: 0.12 mg/dL
TOTAL PROTEIN [3]: 5.75 G/DL
URIC ACID [3]: 0.75 mg/dL
